Reference: patent publication US20240408215A1, “USE OF DIAZIRINE LINKER FOR DRUG CONJUGATES” (HELMHOLTZ ZENTRUM MUNCHEN - DEUTSCHES FORSCHUNGSZENTRUM FUR …, priority 2021, published 2024)

Test: Pulsed UV light release of 7-hydroxycoumarin in homogenous media, with dark intervals
Type: physicochemical
Conditions: FIG. 7

For `[N-]=[N+]=NCCCCCC(=O)OCC1(COc2ccc3ccc(=O)oc3c2)N=N1` [(3-(((2-oxo-2H-chromen-7-yl)oxy)methyl)-3H-diazirin-3-yl)methyl-6-azidohexanoate], the “release of 7-hydroxycoumarin in the dark after the light pulse” value (1-2 minutes in the dark after each pulse) was “no additional leaking of payload occurs after ending the pulse” and the “release of 7-hydroxycoumarin upon UV light irradiation” value (water/EtOH/DMSO (1.0:1.0:0.1), UV light pulses, not attached to agarose) was “efficient release”.
